Calls of active or inactive are those of the source.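 How the source made its calls: active means compounds whose fitted half-maximal concentration in the cell-protection dose series is at or below a set limit; inactive means the rest.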

This test relates to H9c2 cardiomyocytes, 2-deoxyglucose stress, ATP luminescence, 2 h. The experiment in a line: protection of cardiomyocytes from 2-deoxyglucose injury, dose response, cell-based, 2-deoxyglucose stress, uHTS hits (AID 588780).
What is called IC50 is the concentration that inhibits the measured activity by half. Regarding `Fc1ccc(-c2ccc(-c3nn4c(-c5ccco5)nnc4s3)o2)cc1`, the IC50 was > 79 µM (inactive). To `O=C(Nc1cccc(Cl)c1)c1nc[nH]c1C(=O)NCCCNC(=O)c1[nH]cnc1C(=O)Nc1cccc(Cl)c1` belongs > 79 µM (inactive); to `Cc1ccc(N=Cc2cc(Br)cc(Cl)c2O)cc1`, > 79 µM (inactive). In the case of `Cn1c(NCc2ccco2)nc2c1c(=O)n(Cc1ccc(Cl)cc1)c(=O)n2C` it was 31.3 µM (inactive); in that of `O=C(COC(=O)c1ccc([N+](=O)[O-])o1)Nc1ccc(N2CCOCC2)cc1`, > 79 µM (inactive). To `Cc1cc(C)cc(NC(=O)CSc2ccc(-c3ccccn3)nn2)c1` belongs > 79 µM (inactive); to `Cc1cc(=O)oc2cc(OCC(=O)N3CCN(C(=O)C4COc5ccccc5O4)CC3)c(Cl)cc12` (centres undefined), 12.7 µM. Regarding `COc1cc(/C=N/NC(=O)c2ccccc2O)ccc1OCC(=O)Nc1ccccc1`, the IC50 is > 79 µM (inactive). To `CCc1nc2ccc(C(=O)NCc3cccs3)cn2c1N(C)Cc1nccs1` belongs 22.4 µM; to `CCOC(=O)CSc1nc2sc(C)c(C)c2c(=O)[nH]1`, > 79 µM (inactive); to `O=C(CSc1nnc(-c2cccnc2)n1Cc1ccco1)c1ccccc1`, > 79 µM (inactive). To `COc1ccc(-c2cc(NC=O)c3ncc(-c4ccccc4)n3c2)cc1OC` belongs > 79 µM (inactive). In the case of `CCn1c(SCC(=O)N2CCN(c3ccccc3)CC2)nc2c(c1=O)SC(C)C2` (centres undefined) it was > 79 µM (inactive). As for `O=C(N/N=C/c1cccc2cccnc12)[C@H]1C[C@@H]1c1ccccc1`, the IC50 is 29.2 µM.

Consider `COCCNC(=O)COC(=O)c1ccc(OCC(=O)Nc2ccccc2OC)c(OC)c1`, for which the IC50 was 22.9 µM. In the case of `CN(CC(=O)Nc1ccccc1Br)C(=O)Cn1[nH]c(=O)c2ccccc2c1=O` it was > 79 µM (inactive); in that of `Cc1ccc(CNC(=O)c2oc3ccc(S(=O)(=O)N4CCOCC4)cc3c2C)cc1`, 14.1 µM; in that of `Cc1cccc(C(=O)N/N=C2\CS(=O)(=O)N(C)c3ccsc32)c1`, 6.21 µM. In the case of `CCN(CC(=O)Nc1ccc(OC)cc1)C(=O)CCc1nc2ccccc2c(=O)[nH]1` it was > 79 µM (inactive); in that of `O=C(COC(=O)Cn1[nH]c(=O)c2ccccc2c1=O)Nc1c(Cl)cccc1C(F)(F)F`, > 79 µM (inactive). In the case of `O=C(N/N=C/c1cn(-c2ccccc2)nc1-c1cccs1)c1ccccc1F` it was > 79 µM (inactive); in that of `COc1ccc(OC)c(/C=N/Nc2nncn2/N=C/c2cc(OC)ccc2OC)c1`, > 79 µM (inactive); in that of `Cc1cc(NC(=O)c2cccs2)cc(-c2nc3ncccc3o2)c1O`, > 79 µM (inactive).

For the compound `N#Cc1ccc(OCC(=O)Nc2nc(-c3ccccn3)cs2)cc1`, the IC50 was > 79 µM (inactive). To `C/C(=N\Nc1nnc2c3ccccc3n(C)c2n1)c1ccc(C)o1` belongs > 79 µM (inactive); to `Cc1c(O)ccc2c(-c3ccccc3)cc(=O)oc12`, 24.5 µM. To `O=C(Nc1ccc2nc(N3CCOCC3)sc2c1)c1cc2ccccc2o1` belongs > 79 µM (inactive). To `Cc1cc(Br)cc(C=Nc2ccc(N3CCOCC3)cc2)c1O` belongs 58.4 µM (inactive).

In the case of `O=C(CCCSc1nc2sc3c(c2c(=O)[nH]1)CCC3)NCCCO`, the IC50 was > 79 µM (inactive). In the case of `CCOC(=O)c1cc(-c2ccc(/C=N\n3cnnc3)o2)ccc1Cl` it was > 79 µM (inactive). In the case of `COc1ccc(-c2csc(NC(=O)CCn3cnc4ccccc4c3=O)n2)cc1OC` it was > 79 µM (inactive); in that of `COc1ccccc1NC(=O)c1cc(-c2ccc(OC)c(OC)c2)nc2ccccc12`, > 79 µM (inactive); in that of `O=C(NCCc1ccc(F)cc1)C(=O)Nc1cc2c3c(c1)CC(=O)N3CCC2`, 26.9 µM. On to `COc1cccc(OC)c1C(=O)Nc1cc(C)nn1-c1nc2ccccc2[nH]1`, for which the IC50 was > 79 µM (inactive).

The values are drawn from PubChem BioAssay AID588780 (Sanford-Burnham Center for Chemical Genomics, 2011).
